Columns and labels:
Assay type in all cases: in vivo, C57BL/6J male mice
[1] = tested on: streptozotocin-induced diabetic mice; assay: Blood glucose level (BS) in streptozotocin-induced diabetic mice; settings: 10 mg/kg i.p. once a day
Procedure: (§1) 9-week-old C57BL/6J male mice were purchased and familiarized with an animal facility for 1 week. 200 mg/kg of streptozotocin (streptozotocin; STZ) was administered […] into the peritoneal cavity of 10-week-old mice to prepare streptozotocin-induced diabetic mice (hereinafter also referred to as “STZ administration week 0”). One week after the administration of streptozotocin, blood was collected from the tail vein of the mice, and the blood glucose level (BS) was measured using an automatic blood glucose measuring device (product name: Medisafe (trademark) Mini GR-102, made by Terumo (Co)). Mice having a blood glucose level of 400 mg/dL or more were determined to be diabetic mice.
(§2) The SMTP-44D groups, the edaravone group, and the pregabalin group were administered SMTP-44D (0.3 mg/kg, 3 mg/kg, or 30 mg/kg doses, respectively), edaravone (10 mg/kg dose), or pregabalin (10 mg/kg dose) into the peritoneal cavity once a day for 3 consecutive weeks from the day following the first week to the fourth week after STZ administration.
(§3) For the above-mentioned STZ group, SMTP-44D groups, edaravone group, pregabalin group, and control group mice, the following measurements were conducted every week from the 0th week, which began on the day when streptozotocin (STZ) was administered, to the 4th week (that is, a total of five times). As algesia tests, the following von Frey test and hot plate test were conducted, and hind plantar blood flow, body weight (BW), and blood glucose level (BS) were measured using the above-mentioned automatic blood glucose measure device. Note, for example, the 0th week represents the 0th day. That is, the measurements were conducted on the 0th, 7th, 14th, 21st, and 28th days.

[2] = tested on: IL-1β; assay: Inflammatory cytokine IL-1β in sciatic nerve (ELISA); settings: 10 mg/kg i.p. once a day, 4th week
Procedure: as §1, §2
(§4) The sciatic nerves of the above-mentioned STZ group, SMTP-44D group (30 mg/kg), edaravone group, pregabalin group, and control group mice on the 4th week were homogenized using the RIPA buffer containing a protease inhibitor cocktail. Moreover, centrifugation was conducted at 4° C. for 15 minutes at 10,000 g, and the supernatant was collected and used for measuring TNF-α concentration (pg/mL), IL-1β concentration (pg/mL), IL-6 concentration (pg/mL), and total protein concentration (μg/mL), respectively. An ELISA assay kit was used for the TNF-α, IL-1β, and IL-6 concentrations. The total protein concentration was measured by using a Pierce (trademark) BCA Protein Assay Kit. The inflammatory cytokine level (pg/mg protein) in the total protein was calculated from the TNF-α concentration (pg/mL), IL-1β concentration (pg/mL), and IL-6 concentration (pg/mL), and total protein concentration (μg/mL).

[3] = tested on: streptozotocin-induced diabetic mice; assay: Von Frey test: evaluating mechanical stimulus; settings: 10 mg/kg i.p. once a day
Procedure: as §1, §2
The above-mentioned STZ group, SMTP-44D groups, edaravone group, pregabalin group, and control group mice were put in grid-like boxes, respectively, and were familiarized for one hour. After the familiarization, by using a Dynamic Plantar Aesthesiometer (tactometer) (manufactured by UGO BASILE Inc.), 1 g/s (that, pressurization increased by 1 g per second) of stimulation was imparted to the hind legs of these mice to measure mechanical thresholds (g) from the start of stimulation to the time when the mice withdrew their legs. The measurements were conducted for both hind legs three times at intervals of three minutes or longer, respectively. A mean value of three mechanical thresholds (g) was calculated for 1 mouse, and then a mean value of the 12 mice for the respective groups was found.

[4] = tested on: IL-6; assay: Inflammatory cytokine IL-6 in sciatic nerve (ELISA); settings: 10 mg/kg i.p. once a day, 4th week
Procedure: as §1, §2, §4

[5] = tested on: streptozotocin-induced diabetic mice; assay: Hind plantar blood flow (laser perfusion imager); settings: 10 mg/kg i.p. once a day
Procedure: as §1, §2
The hind plantar blood flows (perfusion unit: PU) of the above-mentioned STZ group, SMTP-44D groups, edaravone group, pregabalin group, and control group mice were measured under isoflurane anesthesia using a full-field laser perfusion imager.

[6] = Body weight (BW) in streptozotocin-induced diabetic mice; settings: 10 mg/kg i.p. once a day
Procedure: as §1, §2, §3

[7] = 0th week (before dosing), listed as pregabalin
[8] = 1st week (before dosing), listed as pregabalin

## CC(C)C[C@H](CN)CC(=O)O [Pregabalin, pregabalin]
[1]; 0th week (before dosing)
  BS (blood glucose level): 192.2 ± 5.3 mg/dL
[1]; [7]
  BS (blood glucose level): 192.2 ± 5.3 mg/dL
[1]; 1st week (before dosing)
  BS (blood glucose level): 562.7 ± 25.6 mg/dL
[1]; [8]
  BS (blood glucose level): 562.7 ± 25.6 mg/dL
[1]; 2nd week
  BS (blood glucose level): 639.1 ± 44.7 mg/dL
[1]; 2nd week, listed as pregabalin
  BS (blood glucose level): 639.1 ± 44.7 mg/dL
[1]; 3rd week, listed as pregabalin
  BS (blood glucose level): 657.2 ± 38.7 mg/dL
[1]; 4th week
  BS (blood glucose level): 582.3 ± 38.2 mg/dL
[1]; 4th week, listed as pregabalin
  BS (blood glucose level): 582.3 ± 38.2 mg/dL
[2]
  IL-1β: 58.04 ± 4.47 pg/mg protein
[2]; listed as pregabalin
  IL-1β: 58.04±4.47 pg/mg protein
[3]; 0th week (before dosing)
  von Frey test mechanical threshold: 5.0 ± 0.2 g
[3]; [7]
  von Frey test mechanical threshold: 5.0 ± 0.2 g
[3]; 1st week (before dosing)
  von Frey test mechanical threshold: 4.0 ± 0.1 g
[3]; [8]
  von Frey test mechanical threshold: 4.0 ± 0.1 g
[3]; 2nd week
  von Frey test mechanical threshold: 4.6 ± 0.2 g
[3]; 2nd week, listed as pregabalin
  von Frey test mechanical threshold: 4.6 ± 0.2 g
[3]; 3rd week
  von Frey test mechanical threshold: 4.6 ± 0.2 g
[3]; 3rd week, listed as pregabalin
  von Frey test mechanical threshold: 4.6 ± 0.2 g
[3]; 4th week
  von Frey test mechanical threshold: 4.7 ± 0.2 g
[3]; 4th week, listed as pregabalin
  von Frey test mechanical threshold: 4.7 ± 0.2 g
[4]
  IL-6: 166.60 ± 13.57 pg/mg protein
[4]; listed as pregabalin
  IL-6: 166.60±13.57 pg/mg protein
[5]; 0th week (before dosing)
  Hind plantar blood flow: 214.2 ± 7.6 PU
[5]; [7]
  Hind plantar blood flow: 214.2±7.6 PU
[5]; 1st week (before dosing)
  Hind plantar blood flow: 159.8 ± 6.3 PU
[5]; [8]
  Hind plantar blood flow: 159.8±6.3 PU
[5]; 2nd week
  Hind plantar blood flow: 144.7 ± 8.3 PU
[5]; 2nd week, listed as pregabalin
  Hind plantar blood flow: 144.7±8.3 PU
[5]; 3rd week
  Hind plantar blood flow: 152.7 ± 9.5 PU
[5]; 3rd week, listed as pregabalin
  Hind plantar blood flow: 152.7±9.5 PU
[5]; 4th week
  Hind plantar blood flow: 151.2 ± 8.0 PU
[5]; 4th week, listed as pregabalin
  Hind plantar blood flow: 151.2±8.0 PU
[6]
  Body weight decrease between the 0th week and 4th week: 1.4 g
[6]; 0th week (before dosing)
  BW (body weight): 21.8 ± 0.3 g
[6]; [7]
  BW (body weight): 21.8 ± 0.3 g
[6]; 1st week (before dosing)
  BW (body weight): 21.4 ± 0.3 g
[6]; [8]
  BW (body weight): 21.4 ± 0.3 g
[6]; 2nd week
  BW (body weight): 21.3 ± 0.4 g
[6]; 2nd week, listed as pregabalin
  BW (body weight): 21.3 ± 0.4 g
[6]; 3rd week
  BW (body weight): 21.0 ± 0.2 g
[6]; 3rd week, listed as pregabalin
  BW (body weight): 21.0 ± 0.2 g
[6]; 4th week
  BW (body weight): 20.4 ± 0.2 g
[6]; 4th week, listed as pregabalin
  BW (body weight): 20.4 ± 0.2 g
